Test results as given in patent US11111238B2, “Coumarin derivatives, processes for their preparation and uses thereof for the treatment of cancer” (Lead Discovery Center GmbH, priority 2017, dated 2021).

Tests used:
[1] = molecular target: mitochondrial RNA-polymerase (POLRMT) (Mus musculus, UniProt Q8BKF1); assay: Homogeneous TR-FRET assay for mitochondrial transcription activity; format: biochemical; conditions: homogeneous TR-FRET assay according to Example 4; activity class
Summary of the method: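 TR-FRET read-out (340 nm excitation, 665 nm emission) of a 407 bp transcript captured by Eu-streptavidin/biotin donor and ATTO647N acceptor DNA probes after EDTA stop. Transcription ran 2 h at RT with 500 μM […], mouse POLRMT/TFAM/TFB2M and LSP-plasmid template, after 10 min compound preincubation (10 μM or dilution series).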

[2] = system: mitochondrial transcription (7S RNA) in HeLa cells; assay: Quantitative real time-PCR assay of inhibition of mitochondrial transcription (cellular qPCR assay IMT); format: cell-based; conditions: Homo sapiens, 4 h compound incubation, qRT-PCR according to Example 5, activity class
Summary of the method: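 HeLa cells were exposed 4 h to compound dilution series or DMSO. Mitochondrial 7S RNA, with POLRMT for nuclear transcription, was measured by TaqMan qRT-PCR, normalised to TBP. Biological triplicates were analysed by ΔΔCt and expressed as Rq % (2^-ΔΔCt).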

CA-46 (lymphoma) = assay: CellTiter GLO viability assay, CA-46; format: cell-based; conditions: Homo sapiens, CA46, 144 h, read-out: IC50 (μM) incubation time 144 h
Protocol: (§1) The CellTiter-Glo Luminescent Cell Viability Assay (Promega) is a homogeneous method of determining the number of viable cells in culture. It is based on quantification of ATP, indicating the presence of metabolically active cells.
(§2) […] After incubation for 3 h in humidified chambers at 37° C./5% CO2 compounds/DMSO were added at different concentrations. […] Cells treated with the compound vehicle DMSO were used as positive controls and cells treated with 10 μM Staurosporine served as negative controls. […] Thereon, mixture and assay plates were equilibrated at room temperature for 20 min. Equal volumes of the reagent-medium-mixture was added to the volume of culture medium present in each well.
(§3) The plates were mixed at ˜200 rpm for 2 minutes on an orbital shaker. The microplates were then incubated at room temperature for 10 minutes for stabilization of the luminescent signal. Following incubation the luminescence is recorded on a Victor microplate reader (Perkin Elmer) using 200 ms integration time. The data were then analyzed with Excel using the XLFIT Plugin (dose response Fit 205) for IC50-determination. As quality control the Z′-factor was calculated from 16 positive and negative control values. Only assay results showing a Z′-factor≥0.5 were used for further analysis.

HEC-59 (endometrial) = assay: CellTiter GLO viability assay, HEC-59; format: cell-based; conditions: 144 h, read-out: IC50 (μM) incubation time 144 h
Protocol: as §1
(§4) Cells were seeded on day 1 at cell numbers that assure assay linearity and optimal signal intensity. After incubation for 3 h in humidified chambers at 37° C./5% CO2 compounds/DMSO were added at different concentrations. […] Cells treated with the compound vehicle DMSO were used as positive controls and cells treated with 10 μM Staurosporine served as negative controls. […] Thereon, mixture and assay plates were equilibrated at room temperature for 20 min. Equal volumes of the reagent-medium-mixture was added to the volume of culture medium present in each well.
as §3

HRT-18 (colon) = assay: CellTiter GLO viability assay, HRT-18; format: cell-based; conditions: Homo sapiens, 144 h, read-out: IC50 (μM) incubation time 144 h
Protocol: as §1, §4, §3

NCI-H1299 (lung) = assay: CellTiter GLO viability assay, NCI-H1299; format: cell-based; conditions: Homo sapiens, 144 h, read-out: IC50 (μM) incubation time 144 h
Protocol: as §1, §4, §3

NCI-H23 (lung) = assay: CellTiter GLO viability assay, NCI-H23; format: cell-based; conditions: for IC50: Homo sapiens, NCI-H23 (lung), 144 h, read-out: IC50 (μM) incubation time 144 h; for sensitivity of the cell line (in words): NCl-H23
Protocol: as §1, §4, §3

NCI-H596 (lung) = assay: CellTiter GLO viability assay, NCI-H596; format: cell-based; conditions: Homo sapiens, 144 h, read-out: IC50 (μM) incubation time 144 h
Protocol: as §1, §4, §3

SW403 (colon) = assay: CellTiter GLO viability assay, SW403; format: cell-based; conditions: Homo sapiens, SW-403, 144 h, read-out: IC50 (μM) incubation time 144 h
Protocol: as §1, §2, §3

SW48 (colon) = assay: CellTiter GLO viability assay, SW48; format: cell-based; conditions: Homo sapiens, 144 h, read-out: IC50 (μM) incubation time 144 h
Protocol: as §1, §4, §3

SW948 (colon) = assay: CellTiter GLO viability assay, SW948; format: cell-based; conditions: Homo sapiens, 144 h, read-out: IC50 (μM) incubation time 144 h
Protocol: as §1, §4, §3

[3] = system: human DLD-1 colon carcinoma xenograft; assay: Therapeutic effect on human DLD-1 colon carcinoma xenograft in nude mice; conditions: 30 mg/kg p.o. QD × 28 days, positive control
Protocol: DLD-1 colon carcinoma cells (5×10^6 cells in 100 μL of PBS/Matrigel), isolated during exponential growth phase from in vitro cell culture, were transplanted s.c. into each female BALB/c nude mouse at day 0. Mice were kept under strictly controlled and standardized barrier conditions in IVC.
Sorafenib) (Nexavar®, which is an approved multi-kinase inhibitor/cytostatic from Bayer A G, was used as a positive control. Body weight and tumor volume (TV) were monitored two to three times per week.
Mice of groups 3, 4 and 5 were treated again at the end of the study period and blood samples were taken to generate plasma 1 h prior and 1 h post treatment. In addition, tumor and tissue samples were isolated, divided into two parts and snap frozen in liquid nitrogen. Mice of groups 1-5 were sacrificed at day 39. Gross autopsy was performed from all mice.

Chain of mitochondrial RNA-polymerase (POLRMT) (Q8BKF1 42-1207): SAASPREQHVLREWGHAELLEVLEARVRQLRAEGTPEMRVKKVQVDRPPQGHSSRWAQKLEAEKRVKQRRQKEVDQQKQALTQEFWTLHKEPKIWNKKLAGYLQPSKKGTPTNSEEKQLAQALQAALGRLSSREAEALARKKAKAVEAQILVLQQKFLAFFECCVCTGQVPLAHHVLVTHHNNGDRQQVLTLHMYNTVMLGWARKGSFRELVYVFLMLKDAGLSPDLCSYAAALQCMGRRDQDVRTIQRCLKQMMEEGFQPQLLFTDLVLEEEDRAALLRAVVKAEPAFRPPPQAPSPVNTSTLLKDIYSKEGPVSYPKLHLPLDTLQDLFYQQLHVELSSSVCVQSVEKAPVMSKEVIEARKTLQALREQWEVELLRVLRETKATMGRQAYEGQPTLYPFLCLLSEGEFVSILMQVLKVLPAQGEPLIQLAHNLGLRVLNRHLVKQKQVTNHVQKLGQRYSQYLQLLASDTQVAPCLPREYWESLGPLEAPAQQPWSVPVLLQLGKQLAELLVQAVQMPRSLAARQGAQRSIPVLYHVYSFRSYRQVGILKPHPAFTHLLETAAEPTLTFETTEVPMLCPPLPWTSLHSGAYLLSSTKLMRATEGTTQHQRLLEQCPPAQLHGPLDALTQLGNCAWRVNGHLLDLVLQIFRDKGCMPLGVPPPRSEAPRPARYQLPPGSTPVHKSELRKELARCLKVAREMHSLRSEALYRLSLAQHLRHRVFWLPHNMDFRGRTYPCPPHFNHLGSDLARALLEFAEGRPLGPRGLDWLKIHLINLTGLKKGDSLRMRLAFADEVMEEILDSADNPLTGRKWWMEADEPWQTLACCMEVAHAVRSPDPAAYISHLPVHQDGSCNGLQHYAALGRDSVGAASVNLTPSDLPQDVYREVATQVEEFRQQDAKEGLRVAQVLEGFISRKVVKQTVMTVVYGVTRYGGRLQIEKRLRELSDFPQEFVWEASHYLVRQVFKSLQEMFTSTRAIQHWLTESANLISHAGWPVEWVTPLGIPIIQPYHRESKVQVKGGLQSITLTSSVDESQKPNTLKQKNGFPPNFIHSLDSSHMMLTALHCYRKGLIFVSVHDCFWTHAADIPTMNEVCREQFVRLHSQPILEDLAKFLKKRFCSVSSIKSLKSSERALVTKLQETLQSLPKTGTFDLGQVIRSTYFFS

SMILES	IC50 [1]	IC50 [2]	IC50 (CA-46 (lymphoma))	IC50 (HEC-59 (endometrial))	IC50 (HRT-18 (colon))	IC50 (NCI-H1299 (lung))	IC50 (NCI-H23 (lung))	sensitivity of the cell line (in words) (NCI-H23 (lung))	IC50 (NCI-H596 (lung))	IC50 (SW403 (colon))	IC50 (SW48 (colon))	IC50 (SW948 (colon))	body weight loss [3]
Cc1ccccc1-c1cc(=O)oc2cc(OC(C)C(=O)N(C)C)ccc12 (stereo not shown) [Compound 38, N,N-dimethyl-2-[4-(o-tolyl)-2-oxo-chromen-7-yl]oxy-propanamide]	< 0.02 µM	< 0.01 µM	0.1 to 1 µM	> 10 µM	≤ 0.1 µM	0.1 to 1 µM	1 to 10 µM	moderate sensitivity	1 to 10 µM	0.1 to 1 µM	1 to 10 µM	0.1 to 1 µM	
CC(Oc1ccc2c(-c3ccc(F)cc3Cl)cc(=O)oc2c1)C(=O)N1CCC[C@H](C(=O)O)C1 (stereo partly drawn) [Compound 47, (3S)-1-(2-((4-(2-chloro-4-fluorophenyl)-2-oxo-2H-chromen-7-yl)oxy)propanoyl)piperidine-3-carboxylic acid]	< 0.02 µM	< 0.01 µM	0.1 to 1 µM	> 10 µM	≤ 0.1 µM	0.1 to 1 µM	> 10 µM	resistant	1 to 10 µM	0.1 to 1 µM	0.1 to 1 µM	0.1 to 1 µM	
Cc1ccsc1-c1cc(=O)oc2cc(O[C@H](C)C(=O)N3CCC[C@H](CC(=O)O)C3)ccc12 [Compound 181, 2-[(3R)-1-[(2R)-2-[4-(3-methyl-2-thienyl)-2-oxo-chromen-7-yl]oxypropanoyl]-3-piperidyl]acetic acid]	0.02 to 0.1 µM	0.01 to 0.05 µM											
Cc1cscc1-c1cc(=O)oc2cc(O[C@H](C)C(=O)N3CCC[C@H](C(=O)O)C3)ccc12 [Compound 182, (3S)-1-[(2R)-2-[4-(4-methyl-3-thienyl)-2-oxo-chromen-7-yl]oxypropanoyl]piperidine-3-carboxylic acid]	< 0.02 µM	< 0.01 µM											
Cc1cscc1-c1cc(=O)oc2cc(O[C@H](C)C(=O)N3CCCCC3)ccc12 [Compound 183, 7-[(1R)-1-methyl-2-oxo-2-(1-piperidyl)ethoxy]-4-(4-methyl-3-thienyl)chromen-2-one]	< 0.02 µM	< 0.01 µM											
CNC(=O)c1cc(Oc2ccc(NC(=O)Nc3ccc(Cl)c(C(F)(F)F)c3)cc2)ccn1 [Sorafenib, reference compound]													severe body weight loss
